The target of the experiment is T1, Methylated-DNA--protein-cysteine methyltransferase (Homo sapiens, UniProt P16455).
T1 sequence (P16455 whole entry): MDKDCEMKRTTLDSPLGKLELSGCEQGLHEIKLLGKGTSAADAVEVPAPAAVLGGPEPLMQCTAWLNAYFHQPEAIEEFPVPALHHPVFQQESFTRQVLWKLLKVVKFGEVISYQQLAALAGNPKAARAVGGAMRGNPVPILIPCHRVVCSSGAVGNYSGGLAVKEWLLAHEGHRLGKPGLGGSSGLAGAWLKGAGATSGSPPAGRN
As to the kind of experiment: In vitro inhibition of MGMT using cell free extracts from HeLa S3 cells.

A word on the IC50: it is the concentration at which inhibition is half-maximal. Low readings indicate higher potency, high ones lower potency. In the case of `Nc1nc(OCc2ccccc2)c2[nH]nnc2n1`, it took 38 nM to reach half-maximal inhibition (IC50).
Under `Nc1nc(OCc2cc(Br)cs2)c2[nH]cnc2n1` [LOMEGUATRIB] stands 9 nM.

(Values after ChEMBL document CHEMBL1134281, “Monosaccharide-linked inhibitors of O(6)-methylguanine-DNA methyltransferase (MGMT): synthesis, molecular modeling, and structure-activity relationships” (J Med Chem, 2001).)
